Results as given in US12264127B1, “8-((3-formyl-4-hydroxyphenyl)diazenyl)naphthalene-1,3-disulfonic acid as an antioxidant compound” (KING FAISAL UNIVERSITY, priority 2023, dated 2025).

Test: DPPH radical scavenging antioxidant test
Type: biochemical
Conditions: 517 nm; for Inhibition (radical scavenging inhibition): 0.2 mL DPPH (0.75 mM), compound 3 μM in ethanol, 30 min incubation in the dark
Method: The antioxidant properties of the 8-((3-formyl-4-hydroxyphenyl)diazenyl)naphthalene-1,3-disulfonic acid were studied by adding 0.2 mL DPPH (0.75 mM)) to compound 8-((3-formyl-4-hydroxyphenyl)diazenyl)naphthalene-1,3-disulfonic acid (III) (3 μM) in ethanol. After 30 min of incubation in the dark, the absorbance was read against a blank at 517 nm. Ascorbic acid (vitamin C) was used as standard antioxidants (positive control). A blank sample was prepared by 0.2 ml of DPPH in 3 ml ethanol. A negative control sample was run using ethanol instead of the sample. The radical scavenging inhibition was calculated using the following equation: […]
The antioxidant activity for the synthesized compound is listed in Table 1, using Vitamin C as a reference.

| SMILES | Inhibition (radical scavenging inhibition) [%] | antioxidant potential compared to vitamin C (in words) (DPPH in vitro test, vitamin C as positive control) |
| --- | --- | --- |
| O=C1O[C@H]([C@@H](O)CO)C(O)=C1O [vit c, Ascorbic acid, reference compound] | 74 |  |
| O=Cc1cc(N=Nc2cccc3cc(S(=O)(=O)O)cc(S(=O)(=O)O)c23)ccc1O [Product III, 8-((3-formyl-4-hydroxyphenyl)diazenyl)naphthalene-1,3-disulfonic acid] | 54 | high potential as an antioxidant compared to vitamin C |
